# Tested on: GVHD model mice (BALB/c receptor mice, C57BL/6 donor mice)
# Experiment: GVHD model induced by mouse allogeneic bone marrow transplantation
# Assay type: in vivo
# Conditions: for survival rate at 61 days: 61 days after allogeneic bone marrow transplantation
# From the text: This study evaluates a pharmacodynamics effect of a test drug CS12192 in a GVHD model induced by mouse allogeneic bone marrow transplantation. In the GVHD model, 6-8 week old of two types of C57BL/6 (H-2b) and BALB/c (H-2d) male mice are used as donor and receptor animals respectively. Wherein, C57BL/6 mice are the donor mice, and BALB/c mice are the receptor mice.
# The receptor mice are sent to an irradiation center to receive 8.5 Gry systemic irradiation on the day before transplantation, and after the irradiation, the mice are randomly divided into groups according to the body weights of the mice. On day 0, after 3-5% isoflurane pre-anesthesia, the donor mice are killed by cervical dislocation, and spleens are excised in a sterile environment, ground, and filtered by a sterile filter. Then red blood cells are digested with ammonium chloride buffer solution, lymphocytes are washed twice with RPMI 1640 culture solution, and finally resuspended in RPMI 1640 culture solution containing 10% fetal bovine serum, to prepare a lymphocyte suspension.
# The receptor mice are divided into 6 groups, and each group includes 10 mice.
SMILES,"survival rate at 61 days (CS12192 40 mg/kg twice a day, p<0.0005 relative to the vehicle control) [%]","survival rate at 61 days (CS12192 80 mg/kg twice a day, p<0.0001 relative to the vehicle control) [%]",weight gains of the mice (CS12192 two-dose groups (40 and 80 mg/kg twice a day) versus positive drug prednisolone group and solvent control group (FIG. 2)),"survival rate at 61 days (prednisolone 20 mg/kg once a day, p<0.01 relative to the vehicle control) [%]"
C=CC(=O)N(C)c1cc(Nc2ncc(Cl)c(NCCCNC(=O)c3ccc(C#N)cc3)n2)ccc1F [CS12192],89,100,significantly better than that of the positive drug prednisolone group,–
"C[C@]12C=CC(=O)C=C1CC[C@@H]1[C@@H]2[C@@H](O)C[C@@]2(C)[C@H]1CC[C@]2(O)C(=O)CO [prednisolone, reference compound]",–,–,–,67

# — patent US20220387430A1, “USE OF COMPOUND IN PREVENTING OR TREATING GRAFT VERSUS HOST DISEASE” (SHENZHEN CHIPSCREEN BIOSCIENCES, CO., LTD., priority 2019, published 2022)
